According to PubChem BioAssay AID489002 (NMMLSC, 2010):
Active and inactive are the calls of the source.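 Rule for the calls: active = combined score above 52 from an acceptable curve fit, favoring EC50 below 10 µM and curve height over 20%; inactive = the rest.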

target: ATP-dependent translocase ABCB1 (Homo sapiens) (UniProt P08183); assay: P-gp JC-1 efflux blockers potency – Jurkat-DNR cells, flow cytometry, follow-up, dose response (AID 489002); settings: not given
Sequence (P08183 whole entry, looked up): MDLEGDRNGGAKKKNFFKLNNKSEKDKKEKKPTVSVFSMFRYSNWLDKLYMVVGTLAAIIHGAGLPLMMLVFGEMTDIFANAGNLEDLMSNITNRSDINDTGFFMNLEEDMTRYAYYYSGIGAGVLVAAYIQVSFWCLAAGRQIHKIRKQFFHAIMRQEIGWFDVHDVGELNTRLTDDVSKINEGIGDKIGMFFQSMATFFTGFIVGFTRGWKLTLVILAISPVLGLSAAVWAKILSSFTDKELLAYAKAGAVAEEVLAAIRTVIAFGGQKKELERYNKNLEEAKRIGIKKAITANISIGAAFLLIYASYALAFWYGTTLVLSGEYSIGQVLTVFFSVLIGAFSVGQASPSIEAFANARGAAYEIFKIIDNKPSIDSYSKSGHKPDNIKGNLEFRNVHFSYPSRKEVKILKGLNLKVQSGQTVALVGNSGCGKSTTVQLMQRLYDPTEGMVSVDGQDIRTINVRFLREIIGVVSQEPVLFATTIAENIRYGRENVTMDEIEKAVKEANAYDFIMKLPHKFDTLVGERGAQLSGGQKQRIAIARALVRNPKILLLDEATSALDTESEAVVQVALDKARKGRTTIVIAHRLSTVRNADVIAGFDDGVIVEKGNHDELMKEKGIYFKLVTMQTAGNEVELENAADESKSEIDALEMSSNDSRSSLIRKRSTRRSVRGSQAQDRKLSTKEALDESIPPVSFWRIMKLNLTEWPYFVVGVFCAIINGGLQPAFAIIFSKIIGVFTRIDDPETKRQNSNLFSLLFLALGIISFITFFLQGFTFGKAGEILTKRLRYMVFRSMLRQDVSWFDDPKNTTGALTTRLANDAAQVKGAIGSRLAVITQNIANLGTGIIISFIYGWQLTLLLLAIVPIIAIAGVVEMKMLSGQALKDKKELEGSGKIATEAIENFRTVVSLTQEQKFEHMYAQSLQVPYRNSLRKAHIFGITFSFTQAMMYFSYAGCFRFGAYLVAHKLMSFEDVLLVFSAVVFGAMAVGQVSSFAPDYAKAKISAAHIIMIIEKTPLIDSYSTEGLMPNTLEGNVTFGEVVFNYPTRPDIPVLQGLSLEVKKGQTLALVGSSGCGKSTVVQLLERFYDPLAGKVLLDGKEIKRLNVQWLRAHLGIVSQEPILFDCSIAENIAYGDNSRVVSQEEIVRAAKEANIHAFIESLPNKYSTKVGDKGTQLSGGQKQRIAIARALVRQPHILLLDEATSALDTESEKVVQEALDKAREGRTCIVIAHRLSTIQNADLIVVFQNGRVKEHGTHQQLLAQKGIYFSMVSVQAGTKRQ

SMILES | EC50
Cc1c(-c2ccco2)nc2cc(-c3ccccc3)nn2c1N1CCN(C(=O)c2ccoc2)CC1 | 6.48 µM
Cc1nc2cc(-c3cccc(Cl)c3)nn2c(N2CCN(C(=O)c3ccoc3)CC2)c1C | inactive
CC(=O)N1CCN(c2cc(-c3ccco3)nc3cc(-c4ccccc4)nn23)CC1 | 5.44 µM
COc1ccc(-c2cc3nc(-c4ccccc4)cc(N4CCN(C(=O)c5ccoc5)CC4)n3n2)cc1 | 2.05 µM
O=C(C1CCCO1)N1CCN(c2c3c(nc4cc(-c5cccc(F)c5)nn24)CCCC3)CC1 (stereo not given) | inactive
Cc1ccc(-c2cc3nc(-c4ccco4)cc(N4CCN(C(=O)c5ccoc5)CC4)n3n2)cc1 | inactive
O=C(c1ccoc1)N1CCN(c2cc(-c3ccco3)nc3cc(-c4ccco4)nn23)CC1 | 2.03 µM
COc1ccc(-c2cc3nc(-c4ccco4)cc(N4CCN(C(=O)c5ccoc5)CC4)n3n2)cc1 | 4.86 µM
O=C(c1ccoc1)N1CCN(c2cc(-c3cccs3)nc3cc(-c4ccccc4)nn23)CC1 | 8.33 µM
COc1cc(OC)cc(-c2cc3nc(C)c(C)c(N4CCN(C(=O)c5ccoc5)CC4)n3n2)c1 | 1.84 µM
Cc1cc(C(=O)N2CCN(c3cc(-c4ccco4)nc4cc(-c5ccccc5)nn34)CC2)c(C)o1 | 8.68 µM
Cc1nc2cc(-c3ccc4c(c3)OCO4)nn2c(N2CCN(C(=O)c3ccoc3)CC2)c1C | 1.93 µM
COc1cccc(-c2cc(N3CCN(C(=O)c4ccoc4)CC3)n3nc(-c4cccc(OC)c4)cc3n2)c1 | 3.54 µM
O=C(c1ccoc1)N1CCN(c2cc(-c3ccco3)nc3cc(-c4cccc(-c5ccco5)c4)nn23)CC1 | 5.15 µM
O=C(OCc1ccccc1)N1CCN(c2cc(-c3ccco3)nc3cc(-c4ccccc4)nn23)CC1 | 3.03 µM
O=C(c1ccoc1)N1CCN(c2cc(-c3ccccc3F)nc3cc(-c4ccccc4)nn23)CC1 | 10.5 µM
O=C(c1ccoc1)N1CCN(c2cc(-c3ccco3)nc3cc(-c4ccccc4)nn23)CC1 | 4.6 µM

SMILES | EC50
Cc1cc(N2CCN(C(=O)C3CCCO3)CC2)n2nc(-c3cccc(F)c3)cc2n1 (stereo not given) | inactive
O=C1CN(c2cc(-c3ccco3)nc3cc(-c4ccccc4)nn23)CCN1c1ccccc1 | 6.61 µM
COc1cccc(-c2cc3nc(C)c(C(C)C)c(N4CCN(C(=O)c5ccoc5)CC4)n3n2)c1 | 10.2 µM
COc1ccc(-c2cc(N3CCN(C(=O)c4ccoc4)CC3)n3nc(-c4ccccc4)cc3n2)cc1 | inactive
COc1cccc(-c2cc3nc(-c4ccccc4)c(C)c(N4CCN(C(=O)c5ccoc5)CC4)n3n2)c1 | 4.77 µM
COC(=O)c1cccc(-c2cc(N3CCN(C(=O)c4ccoc4)CC3)n3nc(-c4cccc(OC)c4)cc3n2)c1 | 2.97 µM
COc1cccc(-c2cc3nc(-c4cccc(C#N)c4)cc(N4CCN(C(=O)c5ccoc5)CC4)n3n2)c1 | 2.34 µM
Cc1ccc(-c2cc(N3CCN(C(=O)c4ccoc4)CC3)n3nc(-c4ccccc4)cc3n2)o1 | inactive
COc1cccc(-c2cc3nc(-c4ccccc4)cc(N4CCN(C(=O)c5ccoc5)CC4)n3n2)c1 | 7.07 µM
CC(C)(C)c1cc(N2CCN(C(=O)c3ccoc3)CC2)n2nc(-c3ccccc3)cc2n1 | inactive
COc1ccc(-c2[nH]nc3nc(N4CCN(C(=O)c5ccoc5)CC4)cc(C(F)(F)F)c23)cc1 | inactive
COc1ccc(-c2cc3nc(C)c(C)c(N4CCN(C(=O)c5ccco5)CC4)n3n2)cc1 | 4.78 µM
CNCCCN(C)c1cc(-c2ccco2)nc2cc(-c3ccccc3)nn12 | inactive
O=C(c1ccco1)N1CCN(c2cc(-c3ccco3)nc3cc(-c4ccccc4)nn23)CC1 | 8.53 µM
O=C(c1ccoc1)N1CCN(c2cc(-c3ccco3)nc3cc(-c4cccc(Cl)c4)nn23)CC1 | inactive
O=C(c1ccoc1)N1CCN(c2cc(-c3ccoc3)nc3cc(-c4ccccc4)nn23)CC1 | inactive

Now from value to compound:

EC50 | SMILES
3.97 µM | CC(=O)N1CCN(c2cc(-c3ccco3)nc3cc(-c4cccc(Cl)c4)nn23)CC1
inactive | O=C(c1ccoc1)N1CCN(c2cc(-c3ccco3)nc3cc(-c4ccc(Cl)cc4)nn23)CC1
3.84 µM | c1ccc(CN2CCN(c3cc(-c4ccco4)nc4cc(-c5ccccc5)nn34)CC2)cc1
inactive | Cc1nc2cc(-c3ccc(Br)cc3)nn2c(N2CCN(C(=O)c3ccoc3)CC2)c1C
inactive | CC(C)(C)OC(=O)N1CCN(c2cc(-c3ccco3)nc3cc(-c4ccccc4)nn23)CC1
inactive | O=C(c1ccoc1)N1CCCN(c2cc(-c3ccco3)nc3cc(-c4ccccc4)nn23)C1
10.3 µM | COc1ccccc1-c1cc2nc(-c3ccco3)cc(N3CCN(C(=O)c4ccoc4)CC3)n2n1
inactive | Cc1cccc(-c2cc3nc(-c4ccco4)cc(N4CCN(C(=O)c5ccoc5)CC4)n3n2)c1
5.69 µM | O=C(c1ccsc1)N1CCN(c2cc(-c3ccco3)nc3cc(-c4ccccc4)nn23)CC1
inactive | CC1CN(C(=O)OC(C)(C)C)CCN1c1cc(-c2ccco2)nc2cc(-c3ccccc3)nn12 (stereo not given)
11.8 µM | Cc1occc1C(=O)N1CCN(c2cc(-c3ccco3)nc3cc(-c4ccccc4)nn23)CC1
inactive | c1ccc(-c2cc3nc(-c4ccco4)cc(N4CCNCC4)n3n2)cc1
inactive | CN(CCCN(C)c1cc(-c2ccco2)nc2cc(-c3ccccc3)nn12)C(=O)c1ccoc1
15.3 µM | COc1ccccc1-c1cc(N2CCN(C(=O)c3ccoc3)CC2)n2nc(-c3ccccc3)cc2n1
inactive | Cc1nc2cc(-c3ccncc3)nn2c(N2CCN(C(=O)c3ccoc3)CC2)c1C
9.8 µM | O=C(c1ccoc1)N1CCN(c2cc(-c3ccco3)nc3cc(-c4cccs4)nn23)CC1
4.08 µM | COc1ccc(-c2cc3nc(C)c(C)c(N4CCN(C(=O)c5ccoc5)CC4)n3n2)cc1
6.45 µM | O=C(c1ccoc1)N1CCN(c2cc(-c3cccc(F)c3)nc3cc(-c4cccc(Cl)c4)nn23)CC1
11.8 µM | COc1cccc(-c2cc3nc(C)c(C)c(N4CCN(C(=O)c5ccco5)CC4)n3n2)c1
inactive | COc1cccc(-c2cc3nc(C)cc(N4CCN(C(=O)c5ccoc5)CC4)n3n2)c1
inactive | O=C(c1coc2ccccc12)N1CCN(c2cc(-c3ccco3)nc3cc(-c4ccccc4)nn23)CC1
inactive | O=C(c1ccoc1)N1CCN(c2cc(-c3cccc(F)c3)nc3cc(-c4ccccc4)nn23)CC1
2.19 µM | Cc1nc2cc(-c3ccccc3)nn2c(N2CCN(C(=O)c3ccoc3)CC2)c1C
12.8 µM | COc1cccc(-c2cc3nc(C)c(C)c(N4CCN(C(=O)c5ccoc5)CC4)n3n2)c1
9.92 µM | O=C(c1ccoc1)N1CCN(c2cc(-c3ccccc3)nc3cc(-c4ccncc4)nn23)CC1
1.85 µM | O=C(c1ccco1)N1CCN(c2c3c(nc4cc(-c5ccc(F)cc5)nn24)CCC3)CC1

same assay, conditions: at 50 µM (top of the series)

SMILES | inhibition
O=C(c1ccco1)N1CCN(c2cc(-c3ccccc3)nc3ncnn23)CC1 | inactive
COc1ccccc1-c1c(C)nn2c(N3CCN(C(=O)c4ccco4)CC3)cc(C)nc12 | inactive
Cc1nn2c(N3CCN(C(=O)c4ccco4)CC3)cc(C(C)(C)C)nc2c1-c1ccc(Cl)cc1 | inactive

Continued, values first:

inhibition | SMILES
inactive | Cc1nc2cc(-c3cccc(F)c3)nn2c(N2CCN(C(=O)c3ccco3)CC2)c1C
inactive | CC(=O)N1CCN(c2c(C)c(C)nc3cc(-c4ccc(F)cc4)nn23)CC1
inactive | COc1cccc(-c2cc3nc(C)c(C)c(N4CCN(Cc5ccco5)CC4)n3n2)c1
